From patent US10577349B2 (Sanford Burnham Prebys Medical Discovery Institute, priority 2015, dated 2020)

Columns and labels:
Compound 38 PK Study = assay type: in vivo, C57Bl/6J mice; settings: male, C57Bl/6J, mouse, plasma
Procedure: Method: Fasted male C57Bl/6J mice were dosed with a 1 mg/mL solution of Compound 38 in 10% DMSO, 10% Tween-80 and 80% water by intravenous injection (2 mg/kg, as a 0.4 mg/mL solution), oral gavage (10 mg/kg as a 1 mg/mL solution) or intraperitoneal injection (10 mg/kg as a 1 mg/mL solution). Plasma was collected at various time points and analyzed by LC/MS/MS to determine compound levels.

eIF4F complex = target: T1, eIF4F complex (Mus musculus, UniProt Q6NZJ6); test: m7GTP pull-down assay, WT or 4E-BP DKO MEFs; assay type: cell-based; settings: 6 hours, Torin1 250 nmol/L
T1 construct: endogenous in cells; host or cells: WT and 4E-BP1/2 double-knock-out MEFs
T1 sequence (Q6NZJ6 whole entry, one chain of several): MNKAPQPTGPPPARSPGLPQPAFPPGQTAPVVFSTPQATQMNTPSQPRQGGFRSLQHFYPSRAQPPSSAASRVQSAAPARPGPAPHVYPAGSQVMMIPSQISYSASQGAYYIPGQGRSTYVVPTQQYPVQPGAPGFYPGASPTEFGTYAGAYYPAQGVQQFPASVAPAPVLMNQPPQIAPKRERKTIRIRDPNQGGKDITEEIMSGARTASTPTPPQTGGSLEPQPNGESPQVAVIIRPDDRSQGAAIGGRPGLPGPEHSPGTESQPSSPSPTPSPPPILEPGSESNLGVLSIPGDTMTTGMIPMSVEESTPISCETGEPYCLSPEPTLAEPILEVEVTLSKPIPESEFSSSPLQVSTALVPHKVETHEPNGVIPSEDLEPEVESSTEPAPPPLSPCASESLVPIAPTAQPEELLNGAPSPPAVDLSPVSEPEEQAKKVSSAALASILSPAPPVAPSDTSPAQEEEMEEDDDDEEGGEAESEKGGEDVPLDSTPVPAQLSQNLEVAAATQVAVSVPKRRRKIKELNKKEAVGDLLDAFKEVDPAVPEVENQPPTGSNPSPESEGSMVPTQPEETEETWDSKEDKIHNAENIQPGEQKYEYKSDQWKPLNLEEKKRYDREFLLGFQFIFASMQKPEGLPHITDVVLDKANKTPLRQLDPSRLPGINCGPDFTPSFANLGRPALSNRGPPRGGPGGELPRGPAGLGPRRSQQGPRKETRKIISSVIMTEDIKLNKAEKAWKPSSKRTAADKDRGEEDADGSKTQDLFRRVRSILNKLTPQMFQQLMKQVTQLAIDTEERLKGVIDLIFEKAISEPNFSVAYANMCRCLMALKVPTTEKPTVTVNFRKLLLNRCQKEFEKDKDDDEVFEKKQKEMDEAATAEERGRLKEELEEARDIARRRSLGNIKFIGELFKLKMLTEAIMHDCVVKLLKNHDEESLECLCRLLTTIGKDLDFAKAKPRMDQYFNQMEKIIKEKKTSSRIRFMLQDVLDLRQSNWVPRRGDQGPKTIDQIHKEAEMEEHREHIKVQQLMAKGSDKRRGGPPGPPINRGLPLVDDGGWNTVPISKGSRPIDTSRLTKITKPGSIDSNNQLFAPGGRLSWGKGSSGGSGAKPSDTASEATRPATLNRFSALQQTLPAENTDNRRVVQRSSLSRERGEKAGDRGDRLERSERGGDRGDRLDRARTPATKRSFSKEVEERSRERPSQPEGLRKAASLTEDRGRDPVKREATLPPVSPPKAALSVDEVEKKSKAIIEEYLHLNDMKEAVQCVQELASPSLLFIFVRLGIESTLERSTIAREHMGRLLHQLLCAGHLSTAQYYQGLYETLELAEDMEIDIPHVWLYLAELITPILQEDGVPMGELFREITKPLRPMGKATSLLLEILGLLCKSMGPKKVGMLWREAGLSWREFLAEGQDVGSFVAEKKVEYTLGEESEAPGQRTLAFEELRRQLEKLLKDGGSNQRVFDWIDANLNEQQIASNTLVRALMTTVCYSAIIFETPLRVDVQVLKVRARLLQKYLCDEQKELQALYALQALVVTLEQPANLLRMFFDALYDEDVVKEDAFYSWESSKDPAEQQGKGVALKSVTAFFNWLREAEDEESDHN
Procedure: As previously described (Dowling R J, et al. mTORC1-mediated cell proliferation, but not cell growth, controlled by the 4E-BPs. Science. 2010; 328:1172-6), cells growing in 100 mm plates were washed (cold PBS), collected, and lysed in 50 mM MOPS/KOH (7.4), 100 mM NaCl, 50 mM NaF, 2 mM EDTA, 2 mM EGTA, 1% NP40, 1% Na-DOC, 7 mM β-mercaptoethanol, protease inhibitors and phosphatase inhibitor cocktail (Roche). Lysates were incubated with m7-GDP-agarose beads (Jena Bioscience) for 20 minutes, washed 4 times with the washing buffer containing 50 mM MOPS/KOH (7.4), 100 mM NaCl, 50 mM NaF, 0.5 mM EDTA, 0.5 mM EGTA, 7 mM (3-mercaptoethanol, 0.5 mM PMSF, 1 mM Na3VO4 and 0.1 mM GTP, and bound proteins were eluted by boiling the beads in loading buffer. m7-GDP-agarose pulled down material was analyzed by Western blot analysis.
Indicated cultures (WT or DKO 4E-BP) were treated with Torin1 (250 nmol/L) or indicated Compound 38 concentrations for 6 hours. Western blots show respective protein levels in total cell lysates or following pull-down using m^7GTP agarose beads. […] P3-Actin served as a loading control and to exclude contamination in m^7GTP pull-down.

[1] = Hepatic Microsome Stability Mouse; assay type: in vitro ADME
[2] = target: EmCV Cap-dependent translation; test: In vitro translation assay, FF-EmCV-Ren construct, cap-dependent (FF luciferase); assay type: biochemical, rabbit reticulocyte lysates
How it was run: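 Luminescence read-out: firefly signal reports cap-dependent and Renilla signal IRES-dependent translation from FF-IRES-Ren bicistronic RNA in rabbit reticulocyte lysate. Lysate was pre-incubated with compound 1 h at room temperature before adding RNA and translating 2 h at 30° C.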

[3] = tested on: WM1346 (NRAS mutant) cell line; test: Reverse phase protein array analysis (RPPA), WM1346; assay type: cell-based, human; settings: WM1346, 1 μM, 24 h
Procedure: UACC903 and WM1346 cells were treated with DMSO (controls) or 1 μM Compound 38 for 24 h in triplicate. Cells were lysed with lysis buffer (1% Triton X-100, 50 mM HEPES, pH 7.4, 150 mM NaCl, 1.5 mM MgCl2, 1 mM EGTA, 100 mM NaF, 10 mM Na pyrophosphate, 1 mM Na3VO4, 10% glycerol, with freshly added protease and phosphatase inhibitors) and centrifuged at 13,000 g for 20 minutes. Denatured protein lysates containing the same amount of protein were then subjected to RPPA analysis at the RPPA Core Facility, Md. Anderson Cancer Center, as previously described (Tibes. R., et al. Reverse phase protein array: validation of a novel proteomic technology and utility for analysis of primary leukemia specimens and hematopoietic stem cells. Molecular cancer therapeutics 5, 2512-2521 (2006)),
A reverse phase protein array (RPPA) analysis of BRAF- and NRAS-mutant melanomas was performed to identify protein networks affected by Compound 38 (Table 4).

[4] = tested on: E1A/RAS-transformed 4E-BP DKO MEFs; test: Proliferation of E1A/Ras-transformed MEFs (BrdUrd incorporation); assay type: cell-based; settings: 48 hours
Procedure: E1A/Ras-transformed WT or 4e-bp1/4e-bp2 DKO MEFs were treated with either Torin1 or Compound 38 at indicated concentrations and cell proliferation was measured 48 hours later with the aid of BrdUrd incorporation. Values were normalized to DMSO-treated triplicates. Error bars, SD (n=3).

SMILES: O=C(/C=C/c1cncc(F)c1)c1c(-c2ccccc2)c2cc(Cl)ccc2[nH]c1=O [Compound 38, 6-Chloro-3-[3-(5-fluoro-pyridin-3-yl)-acryloyl]-4-phenyl-1H-quinolin-2-one]
- half-life (Compound 38 PK Study): 2.95 h
- clearance (Compound 38 PK Study; IV 2 mg/kg): 67 mL/min/kg
- bioavailability (Compound 38 PK Study; oral gavage 10 mg/kg): 20%
- eIF4G1:eIF4E association (m7GTP pull-down) (eIF4F complex): reduced eIF4G1:eIF4E association in both WT and 4E-BP DKO MEFs
- Hepatic Microsome Stability (% remaining at 1 Hr) Mouse [1]: 38.69 % remaining
- Hepatic Microsome Stability (% remaining at 1 Hr) Mouse (no NADPH) ([1]; no NADPH): 53.97 % remaining
- IC50 [2]: 2 to 10 µM
- Ratio [Compound 38/DMSO] A-Raf [3]: 0.90
- Ratio [Compound 38/DMSO] AR [3]: 0.72
- Ratio [Compound 38/DMSO] ATM [3]: 0.82
- Ratio [Compound 38/DMSO] ATR [3]: 0.76
- Ratio [Compound 38/DMSO] BRCA2 [3]: 0.90
- Ratio [Compound 38/DMSO] C-Raf [3]: 0.93
- Ratio [Compound 38/DMSO] Chk1 [3]: 0.94
- Ratio [Compound 38/DMSO] Ets-1 [3]: 0.91
- Ratio [Compound 38/DMSO] GCN5L2 [3]: 0.86
- Ratio [Compound 38/DMSO] INPP4b [3]: 0.88
- Ratio [Compound 38/DMSO] MSH6 [3]: 0.78
- Ratio [Compound 38/DMSO] PI3K-p85 [3]: 0.96
- Ratio [Compound 38/DMSO] PI3K-p110-alpha [3]: 0.95
- Ratio [Compound 38/DMSO] Rad51 [3]: 0.78
- Ratio [Compound 38/DMSO] Raptor [3]: 0.87
- Ratio [Compound 38/DMSO] Rictor_pT1135 [3]: 0.91
- Ratio [Compound 38/DMSO] S6_pS235_S236 [3]: 0.70
- Ratio [Compound 38/DMSO] S6_pS240_S244 [3]: 0.65
- Ratio [Compound 38/DMSO] Stat5a [3]: 0.67
- Ratio [Compound 38/DMSO] Tuberin [3]: 0.68
- Ratio [Compound 38/DMSO] YB1 [3]: 0.69
- Ratio [Compound 38/DMSO] c-Kit [3]: 0.94
- Ratio [Compound 38/DMSO] c-Myc [3]: 0.80
- Ratio [Compound 38/DMSO] mTOR [3]: 0.71
- Ratio [Compound 38/DMSO] mTOR_pS2448 [3]: 0.76
- Ratio [Compound 38/DMSO] p70-S6K_pT389 [3]: 0.81
- proliferation of E1A/RAS-transformed 4E-BP DKO MEFs [4]: attenuated the proliferation
